Patent publication US5750534A (priority 1996, dated 1998)
Entries after “also recorded” stand apart in the source; their conditions may differ. Counter-ions that a name gives are not always drawn. Like-named read-outs stand apart in the source and are kept apart here.

What was measured:
[1] = test system: Sprague-Dawley rats (nociceptive threshold); format: in vivo, rat
[2] = cited from earlier work; for dosing interval: Hemstrom et al.
[3] = Shafer et al., Anesthesiology 1991; cited from earlier work
Water solubility = format: physicochemical
patients (analgesia) = conditions: 10 mg/65 kg (0.154 mg/kg) i.m., 65-kg patient; cited from earlier work
[4] = test system: Sprague-Dawley rats (antinociceptive threshold); assay: Rat cold ethanol tail-flick test, pharmacodynamic study of nalbuphine arachidate; format: in vivo; conditions: for analgesic effect (significance): FIGS. 21 and 22
humans = assay: Analgesic effect for human intramuscular injection; format: in vivo; conditions: human i.m.
[5] = plasma half time; FIG. 18
humans (analgesia) = assay: Estimate of human analgesic duration and dose from rat/human dose ratio; conditions: 1.56 μM/kg i.m., calculated from rat
[6] = 25 micromole/kg i.m., prodrugs in sesame oil, Table 2 / FIG. 17
[7] = 25 micromole/kg i.m., Table 2 / FIG. 17

**Q.** Which “50% analgesic effect (time)” value [1, 6] does the source give for `CCC(=O)Oc1ccc2c3c1OC1C(O)CCC4(O)C(C2)N(CC2CCC2)CCC314` (stereo not shown) [nalbuphine propionate] here?
**A.** 0.417 days

**Q.** What about the “10% analgesic effect (time)” value ([1]; 25 micromole/kg i.m., Table 2) of the same compound?
**A.** 12 H

**Q.** And the “20% analgesic effect (time)” value ([1]; 25 micromole/kg i.m., Table 2)?
**A.** 11 H

**Q.** Which dosing interval [2] does the source give for `O=C(CCCN1CCC(O)(c2ccc(Cl)cc2)CC1)c1ccc(F)cc1` [haloperidol] here?
**A.** 2-4 times a day

**Q.** For `CCCCCCCCCC(=O)OC1(c2ccc(Cl)cc2)CCN(CCCC(=O)c2ccc(F)cc2)CC1` [haloperidol decanoate], which dosing interval [2] is on record?
**A.** 1-2 times a month

**Q.** Which “dose needed to elicit the same analgesic effect” value (from here on “dose needed”) [3] does the source give for `Oc1ccc2c(c1)[C@@]13CCCC[C@@]1(O)[C@@H](C2)N(CC1CCC1)CC3` [butorphanol] here?
**A.** 2 mg

**Q.** Which water solubility (Water solubility) does the source give for `CCC(=O)Oc1ccc2c3c1OC1C(O)CCC4(O)C(C2)N(CC2CCC2)CCC314` (stereo not shown) [nalbuphine propionate monohydrochloride] here?
**A.** water soluble

**Q.** Which “analgesic duration, clinical” value (patients (analgesia)) does the source give for `Oc1ccc2c3c1O[C@H]1[C@@H](O)CC[C@@]4(O)[C@@H](C2)N(CC2CCC2)CC[C@]314` [nalbuphine hydrochloride, reference compound] here?
**A.** 2 to 3 h

**Q.** And the “10% analgesic effect (time)” value ([1]; rat, in vivo)?
**A.** 5.0 H

**Q.** What about the “10% analgesic effect (time), rat” value ([1]; rat, in vivo) of the same compound?
**A.** 2.4 h

**Q.** And the “10% analgesic effect (time), text” value ([1]; rat, in vivo)?
**A.** 12 h

**Q.** What about the “20% analgesic effect (time)” value ([1]; rat, in vivo) of the same compound?
**A.** 4.4 H

**Q.** And the “20% analgesic effect (time), rat” value ([1]; rat, in vivo)?
**A.** 2.1 h

**Q.** And the “50% analgesic effect (time)” value ([1]; rat, in vivo)?
**A.** 2.5

**Q.** What about the “50% analgesic effect (time), rat” value ([1]; rat, in vivo) of the same compound?
**A.** 1.1 h

**Q.** What about the “analgesic duration (Discussion)” value ([4]; 25 μM/kg (9.86 mg/kg) i.m., rats) of the same compound?
**A.** about 2 hours

**Q.** What about the “duration of analgesic effect” value ([4]; 25 μM/kg i.m., in 0.9% saline, rats) of the same compound?
**A.** 4 h

**Q.** And the “analgesic effect (significance)” value ([4]; 25 μM/kg i.m.)?
**A.** significant analgesic effects

**Q.** And the “10% analgesic effect (time), human” value (humans)?
**A.** 5.0 h

**Q.** What about the “20% analgesic effect (time), human” value (humans) of the same compound?
**A.** 4.4 h

**Q.** What about the “50% analgesic effect (time), human” value (humans; 0.8 nmole/kg as printed) of the same compound?
**A.** 2.5 h

**Q.** With `CC(C)(C)C(=O)Oc1ccc2c3c1OC1C(O)CCC4(O)C(C2)N(CC2CCC2)CCC314` (stereo not shown) [nalbuphine pivalate] as the compound, how does the “50% analgesic effect (time)” value [1, 6] read?
**A.** 3.2 days

**Q.** What about the “20% analgesic effect (time)” value ([1]; 25 micromole/kg i.m., Table 2) of the same compound?
**A.** 3.6 D

**Q.** What about the “10% analgesic effect (time)” value [1, 7] of the same compound?
**A.** 3.8 D

**Q.** Which results are given for `CCCCCCCCCC(=O)Oc1ccc2c3c1O[C@H]1[C@@H](O)CC[C@@]4(O)[C@@H](C2)N(CC2CCC2)CC[C@]314` [nalbuphine decanoate]?
**A.** increase of duration over nalbuphine hydrochloride [5]: 30 times; 50% analgesic effect (time) [1, 6]: 6.7 days; 20% analgesic effect (time) ([1]; 25 micromole/kg i.m., Table 2): 7.5 D; 10% analgesic effect (time) [1, 7]: 8.2 D

**Q.** With `CN1CC[C@]23c4c5ccc(O)c4O[C@H]2[C@@H](O)C=C[C@H]3[C@H]1C5` [morphine] as the compound, how does the “dose needed” value [3] read?
**A.** 10 mg

**Q.** What does the source list for `O=C(Oc1ccc2c3c1OC1C(O)CCC4(O)C(C2)N(CC2CCC2)CCC314)c1ccccc1` (stereo not shown) [nalbuphine benzoate]?
**A.** 50% analgesic effect (time) [1, 6]: 3.5 days; 20% analgesic effect (time) ([1]; 25 micromole/kg i.m., Table 2): 4.0 D; 10% analgesic effect (time) [1, 7]: 4.0 D

**Q.** Which “50% analgesic effect (time)” value [1, 6] does the source give for `CCCCCCC(=O)Oc1ccc2c3c1OC1C(O)CCC4(O)C(C2)N(CC2CCC2)CCC314` (stereo not shown) [nalbuphine enanthate] here?
**A.** 3.9 days

**Q.** And the “20% analgesic effect (time)” value ([1]; 25 micromole/kg i.m., Table 2)?
**A.** 3.4 D

**Q.** And the “10% analgesic effect (time)” value [1, 7]?
**A.** 3.6 D

**Q.** Which results are given for `CCCCCCCCCCCCCCCCCCCC(=O)Oc1ccc2c3c1OC1C(O)CCC4(O)C(C2)N(CC2CCC2)CCC314` (stereo not shown) [nalbuphine arachidate]?
**A.** duration of analgesic effect in words ([4]; 25 μM/kg i.m., rats): longer than that of nalbuphine HCl; also recorded: long duration of analgesic effect; also recorded: very long duration of analgesic effect; duration of analgesic effect ([4]; 25 μM/kg i.m., sesame oil suspension, rats): 96 to 120 h; analgesic effect (significance) ([4]; 25 μM/kg i.m.): significant analgesic effects; estimated analgesic duration in humans (humans (analgesia)): 4 to 5 days

**Q.** For `C#C[C@]1(OC(=O)CCCCCC)CC[C@H]2[C@@H]3CCC4=CC(=O)CC[C@@H]4[C@H]3CC[C@@]21C` [northisterone enanthate], which “dosing interval in words” value ([2]; Joshi et al.) is on record?
**A.** once every 2 months

**Q.** For `CO[C@]12CC[C@@]3(C[C@@H]1[C@](C)(O)C(C)(C)C)[C@H]1Cc4ccc(O)c5c4[C@@]3(CCN1CC1CC1)[C@H]2O5` [buprenorphine], which “dose needed” value [3] is on record?
**A.** 0.3 mg

**Q.** For `Oc1ccc2c3c1O[C@H]1[C@@H](O)CC[C@@]4(O)[C@@H](C2)N(CC2CCC2)CC[C@]314` [nalbuphine], which “amount of released nalbuphine free base (FIG. 15)” value (between 17 and 28 hours, p<0.05) is on record?
**A.** less in the preparations with sesame oil than with peanut oil ester and the control

**Q.** What about the “release times (FIG. 16)” value (nalbuphine base versus hydrochloride) of the same compound?
**A.** significantly increased
